Data taken from patent publication US20240239764A1, “SUBSTITUTED AMINOBENZYL HETEROARYL COMPOUNDS AS EGFR AND/OR PI3K INHIBITORS” (Mekanistic Therapeutics, priority 2020, published 2024).
Read-outs that look alike come from different tables or passages of the source.

Experiments:
[1] = target: DNA-PK (Homo sapiens, UniProt P78527); experiment: Z′-LYTE / ADAPTA kinase assay, DNA-PK; type: biochemical; conditions: read-out: DNA-PK % Inh. @ 100 nM
Excerpt: (§1) The Z′-LYTE® biochemical assay employs a fluorescence-based, coupled-enzyme format and is based on the differential sensitivity of phosphorylated and non-phosphorylated peptides to proteolytic cleavage (FIG. 6). The peptide substrate is labeled with two fluorophores—one at each end—that make up a FRET pair. In the primary reaction, the kinase transfers the gamma-phosphate of ATP to a single tyrosine, serine or threonine residue in a synthetic FRET-peptide. In the secondary reaction, a site-specific protease recognizes and cleaves non-phosphorylated FRET-peptides. Phosphorylation of FRET-peptides suppresses cleavage by the Development Reagent. […] A ratiometric method, which calculates the ratio (the Emission Ratio) of donor emission to acceptor emission after excitation of the donor fluorophore at 400 nm, is used to quantitate reaction progress.
(§2) A significant benefit of this ratiometric method for quantitating reaction progress is the elimination of well-to-well variations in FRET-peptide concentration and signal intensities. […]
(§3) Both cleaved and uncleaved FRET-peptides contribute to the fluorescence signals and therefore to the Emission Ratio. The extent of phosphorylation of the FRET-peptide can be calculated from the Emission Ratio. […]

[2] = target: EGFR (Homo sapiens, UniProt P00533); experiment: Z′-LYTE / ADAPTA kinase assay, EGFR; type: biochemical
Sequence of EGFR (P00533 25-1210): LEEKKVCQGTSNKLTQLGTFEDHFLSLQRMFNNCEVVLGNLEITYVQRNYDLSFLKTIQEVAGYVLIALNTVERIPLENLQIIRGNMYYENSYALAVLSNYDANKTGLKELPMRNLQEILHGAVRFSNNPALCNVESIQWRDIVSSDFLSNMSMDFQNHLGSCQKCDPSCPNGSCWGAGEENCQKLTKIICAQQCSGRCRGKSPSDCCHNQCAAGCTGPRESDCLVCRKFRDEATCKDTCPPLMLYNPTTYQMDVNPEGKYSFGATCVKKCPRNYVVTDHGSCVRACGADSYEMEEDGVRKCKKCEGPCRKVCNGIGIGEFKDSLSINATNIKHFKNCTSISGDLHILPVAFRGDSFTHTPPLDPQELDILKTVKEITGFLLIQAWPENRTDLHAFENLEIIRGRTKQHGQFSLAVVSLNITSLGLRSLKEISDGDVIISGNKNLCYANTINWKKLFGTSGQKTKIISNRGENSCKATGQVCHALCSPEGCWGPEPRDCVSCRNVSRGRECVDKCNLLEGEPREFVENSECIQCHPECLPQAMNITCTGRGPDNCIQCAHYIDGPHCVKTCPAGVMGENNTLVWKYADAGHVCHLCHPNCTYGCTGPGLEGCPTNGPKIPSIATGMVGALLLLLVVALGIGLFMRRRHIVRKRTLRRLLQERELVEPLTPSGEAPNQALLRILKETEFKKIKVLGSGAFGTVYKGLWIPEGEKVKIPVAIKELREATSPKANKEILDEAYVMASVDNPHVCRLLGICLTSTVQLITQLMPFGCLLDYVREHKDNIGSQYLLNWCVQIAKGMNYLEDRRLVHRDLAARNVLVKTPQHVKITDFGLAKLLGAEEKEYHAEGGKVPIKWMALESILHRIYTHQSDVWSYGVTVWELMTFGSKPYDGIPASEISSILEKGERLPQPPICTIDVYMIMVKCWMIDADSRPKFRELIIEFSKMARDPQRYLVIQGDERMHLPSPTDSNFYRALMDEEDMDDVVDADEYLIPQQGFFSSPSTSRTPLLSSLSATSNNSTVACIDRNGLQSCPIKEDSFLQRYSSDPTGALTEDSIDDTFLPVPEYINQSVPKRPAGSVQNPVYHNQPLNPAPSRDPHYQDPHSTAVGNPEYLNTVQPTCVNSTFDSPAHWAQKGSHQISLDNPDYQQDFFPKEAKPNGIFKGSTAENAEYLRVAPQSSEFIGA
Excerpt: as §1, §2, §3

[3] = target: PI3Ka (Homo sapiens, UniProt P42336); experiment: Z′-LYTE / ADAPTA kinase assay, PI3Ka; type: biochemical; conditions: for inhibition at 0.1 µM: read-out: PI3Ka % Inh. @100 nM
Sequence of PI3Ka (P42336 whole entry): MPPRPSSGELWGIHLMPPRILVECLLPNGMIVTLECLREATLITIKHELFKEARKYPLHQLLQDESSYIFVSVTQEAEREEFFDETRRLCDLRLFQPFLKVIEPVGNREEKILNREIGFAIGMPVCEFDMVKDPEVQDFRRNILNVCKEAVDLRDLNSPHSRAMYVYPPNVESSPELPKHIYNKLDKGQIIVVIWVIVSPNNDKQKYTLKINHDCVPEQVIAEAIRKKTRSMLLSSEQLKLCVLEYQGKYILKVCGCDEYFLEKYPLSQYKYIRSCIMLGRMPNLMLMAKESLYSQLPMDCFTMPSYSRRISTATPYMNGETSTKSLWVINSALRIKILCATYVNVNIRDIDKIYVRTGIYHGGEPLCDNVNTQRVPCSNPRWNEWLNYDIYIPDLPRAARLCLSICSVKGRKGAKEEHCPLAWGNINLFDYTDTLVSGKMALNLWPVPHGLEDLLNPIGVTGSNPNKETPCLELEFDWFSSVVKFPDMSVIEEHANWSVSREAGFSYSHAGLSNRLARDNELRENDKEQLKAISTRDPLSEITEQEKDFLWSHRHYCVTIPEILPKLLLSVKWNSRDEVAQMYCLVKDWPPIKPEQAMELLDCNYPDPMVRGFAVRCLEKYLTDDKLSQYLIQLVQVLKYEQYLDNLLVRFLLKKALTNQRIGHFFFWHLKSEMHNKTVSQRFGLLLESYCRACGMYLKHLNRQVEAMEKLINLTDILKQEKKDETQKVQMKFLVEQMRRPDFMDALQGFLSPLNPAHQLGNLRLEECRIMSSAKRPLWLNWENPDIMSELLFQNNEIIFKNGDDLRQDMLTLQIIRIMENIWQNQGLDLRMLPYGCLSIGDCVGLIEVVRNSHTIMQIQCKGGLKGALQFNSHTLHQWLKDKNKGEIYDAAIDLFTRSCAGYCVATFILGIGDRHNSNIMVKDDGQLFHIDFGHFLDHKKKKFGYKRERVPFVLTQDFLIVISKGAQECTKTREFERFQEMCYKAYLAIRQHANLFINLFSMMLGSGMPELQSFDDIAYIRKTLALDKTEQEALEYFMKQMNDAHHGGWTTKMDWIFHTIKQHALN
Sequence of PI3Ka (P27986 whole entry partner): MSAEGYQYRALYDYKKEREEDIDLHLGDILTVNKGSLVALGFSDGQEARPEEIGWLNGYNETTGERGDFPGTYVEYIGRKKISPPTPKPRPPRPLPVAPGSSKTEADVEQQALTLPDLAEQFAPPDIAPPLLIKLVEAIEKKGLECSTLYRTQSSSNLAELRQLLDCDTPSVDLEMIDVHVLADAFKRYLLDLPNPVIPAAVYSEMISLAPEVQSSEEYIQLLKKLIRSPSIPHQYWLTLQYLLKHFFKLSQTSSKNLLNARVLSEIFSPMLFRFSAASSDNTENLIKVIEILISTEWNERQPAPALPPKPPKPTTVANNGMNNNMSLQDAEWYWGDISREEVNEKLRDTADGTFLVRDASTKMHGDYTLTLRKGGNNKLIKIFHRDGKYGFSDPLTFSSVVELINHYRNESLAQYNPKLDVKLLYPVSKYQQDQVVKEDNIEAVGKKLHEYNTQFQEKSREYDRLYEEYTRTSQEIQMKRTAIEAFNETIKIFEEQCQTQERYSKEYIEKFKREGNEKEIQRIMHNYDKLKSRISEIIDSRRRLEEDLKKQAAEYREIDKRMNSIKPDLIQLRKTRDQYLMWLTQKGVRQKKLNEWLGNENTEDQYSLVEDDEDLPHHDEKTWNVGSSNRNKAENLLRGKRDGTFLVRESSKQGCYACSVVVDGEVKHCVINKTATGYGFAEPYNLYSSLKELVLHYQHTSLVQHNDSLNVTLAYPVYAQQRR
Excerpt: The Z′-LYTE® biochemical assay employs a fluorescence-based, coupled-enzyme format and is based on the differential sensitivity of phosphorylated and non-phosphorylated peptides to proteolytic cleavage (FIG. 6). The peptide substrate is labeled with two fluorophores—one at each end—that make up a FRET pair. In the primary reaction, the kinase transfers the gamma-phosphate of ATP to a single tyrosine, serine or threonine residue in a synthetic FRET-peptide. In the secondary reaction, a site-specific protease recognizes and cleaves non-phosphorylated FRET-peptides. Phosphorylation of FRET-peptides suppresses cleavage by the Development Reagent. Cleavage disrupts FRET between the donor (i.e., coumarin) and acceptor (i.e., fluorescein) fluorophores on the FRET-peptide, whereas uncleaved, phosphorylated FRET-peptides maintain FRET. A ratiometric method, which calculates the ratio (the Emission Ratio) of donor emission to acceptor emission after excitation of the donor fluorophore at 400 nm, is used to quantitate reaction progress.
A significant benefit of this ratiometric method for quantitating reaction progress is the elimination of well-to-well variations in FRET-peptide concentration and signal intensities. As a result, the assay yields very high Z′-factor values (>0.7) at a low percent phosphorylation.
Both cleaved and uncleaved FRET-peptides contribute to the fluorescence signals and therefore to the Emission Ratio. The extent of phosphorylation of the FRET-peptide can be calculated from the Emission Ratio.
Enzyme: The ADAPTA universal kinase assay is a homogenous, fluorescent based immunoassay for the detection of ADP. In contrast to ATP depletion assays, the ADAPTA assay is extremely sensitive to ADP formation such that a majority of the signal change occurs in the first 10-20% conversion of ATP to ADP. This makes the ADAPTA universal kinase assay ideally suited for use with low activity kinases.
The principle of the ADAPTA universal kinase assay is outlined below. The assay itself can be divided into two phases: a kinase reaction phase, and an ADP detection phase. In the kinase reaction phase, all components required for the kinase reaction are added to the well, and the reaction is allowed to incubate for 60 minutes. After the reaction, a detection solution consisting of a europium labeled anti-ADP antibody, an AlexaFluor® 647 labeled ADP tracer, and EDTA (to stop the kinase reaction) is added to the assay well. ADP formed by the kinase reaction (in the absence of an inhibitor) will displace the Alexa Fluor®647 labeled ADP tracer from the antibody, resulting in a decrease in the TR-FRET signal.
Test Compounds: The Test Compounds are screened in 1% DMSO (final) in the well. For 10 point titrations, 3-fold serial dilutions are conducted from the starting concentration.
Peptide/Kinase Mixtures: All Peptide/Kinase Mixtures are diluted to a 2× working concentration in the appropriate Kinase Buffer.
ATP Solution: All ATP Solutions are diluted to a 4× working concentration in Kinase Buffer (50 mM HEPES pH 7.5, 0.01% BRIJ-35, 10 mM MgCl2, 1 mM EGTA). ATP Km apparent is previously determined using a Z′-LYTE® assay.
Development Reagent Solution: The Development Reagent is diluted in Development Buffer.
10× Novel PKC Lipid Mix: 2 mg/mL Phosphatidyl Serine, 0.2 mg/mL DAG in 20 mM HEPES, pH 7.4, 0.3% CHAPS. For 5 mL 10× Novel PKC Lipid Mix: 1. Add 10 mgs Phosphatidyl Serine (Avanti Polar Lipids Part #8400032C or 840039C) and 1 mg DAG (Avanti Polar Lipids Part #800811 C) to a glass tube. 2. Remove the chloroform from lipid mixture by evaporating to a clear, thin film under a stream of nitrogen. Continuous rotation of the tube, at an angle to ensure maximum surface area of the lipid solution, will promote the thinnest film. 3. Add 5 mLs resuspension buffer, 20 mM HEPES, 0.3% CHAPS, pH 7.4, to the dried lipid mix 4. Heat gently to 50-60° C. for 1-2 minutes and vortex in short intervals until the lipids are dissolved to a clear or slightly hazy solution. […]

[4] = Solubility determination (PBS 7.4, SIF, SGF); type: physicochemical; conditions: kinetic from dmso stock
Procedure: Preparation of stock solutions: The stock solutions of test compounds and control compound diclofenac were prepared in DMSO at the concentrations of 10 mM.
Simulated Gastric Fluid (SGF): An aqueous mixture including hydrochloric acid, sodium chloride, and pepsin (pH=1.2).
Simulated Intestinal Fluid (SIF): Prepared by dissolving 6.8 g of KH2PO4 into about 500 mL ultrapure water and adjust the solution to a pH 6.8 with 0.1 M NaOH. 10 g trypsin is then dissolved into ultrapure water. The two solutions are mixed well and diluted with ultrapure water to a final volume of 1000 mL.
485 μL of (SIF, SGF, PBS 7.4, FESSIF, or FESSGF) was added into each vial of the cap-less Solubility Sample plate. The assay was performed in duplicate. Add one stir stick to each vial and seal using a molded PTFE/Silicone plug. […] After completion of the 2 hours, plugs were removed and the stir sticks were removed using a big magnet, the samples from the Solubility Sample plate were transferred into the filter plate. Using the Vacuum Manifold, all the samples were filtered. Aliquot of 5 μL and 5 μL DMSO were taken from the filtrate followed by addition of 490 μL of a mixture of H2O and acetonitrile containing internal standard (1:1). A certain proportion of ultrapure water was used to dilute the diluent according to the peak shape. The dilution factor was changed according to the solubility values and the LC-MS signal response.
Preparation of 300 μM standards (STD): From the 10 mM DMSO STD plate, 6 μL was transferred into the remaining empty plate, and then 194 μL of DMSO was added to that plate to have a STD concentration of 300 μM. From the 300 μM DMSO STD plate, 5 μL DMSO STD and 5 μL SIF was transferred into the remaining empty plate, and then 490 μL of a mixture of H2O and acetonitrile containing internal standard (1:1) was added to that plate to have a final STD concentration of 3 μM. A certain proportion of ultrapure water was used to dilute the diluent according to the peak shape. The concentrations of the standard samples were changed according to the LC-MS signal response.
Procedure for sample analysis: The plate was placed into the well plate autosampler. The samples were evaluated by LC-MS/MS analysis.
Data analysis: All calculations were carried out using Microsoft Excel. The filtrate was analyzed and quantified against a standard of known concentration using LC coupled with mass spectral peak identification and quantitation. Solubility values of the test compound and control compound were calculated as follows: […]
Any value of the compounds that was not within the specified limits was rejected and the experiment was repeated.

[5] = Pharmacokinetics in mice, single IV / oral dose; type: in vivo
Procedure: (§4) The pharmacokinetics of Compound 2R (HCl salt) and Comparative Compound 2 were studied following a single intravenous and/or oral administration to mice, dogs, and monkeys (n=3 for all species). The IV and PO solution formulations for Comparative Compound 2 contained 20% (w/v) propylene glycol, 75% (w/v) 50 mM trisodium phosphate (pH 12), and 5% (w/v) Kolliphor EL. The formulation for Compound 2R contained 1:2 propylene glycol: 1% Tween 80/Na3PO4 (50 mM). Subsequent pharmacokinetic data analysis was performed using non-compartmental analysis modules in Phoenix/WINNONLIN 6.3 (Pharsight, St. Louis, Missouri, USA), and the linear trapezoidal rule was used for AUC calculation. Terminal elimination half-life (t½) was calculated based on data points (≥3) in the terminal phase; Tmax=Time of maximum observed concentration; AUClast/D=Area under the concentration-time curve from time zero to the last observed concentration/divided by dose; Cl_obs=Total body clearance; Cmax=maximum observed concentration; F=bioavailability of oral dose form. Blood samples were assayed for compounds using protein precipitation with acetonitrile followed by HPLC/MS/MS analysis. Blood concentration-time data were analyzed by non-compartmental methods.

[6] = Tolerability in the xenograft studies; type: in vivo; conditions: highest dose tested 100 mg/kg, daily dosing over >50 days, all xenograft studies
Procedure: Xenograft Studies. Female NCR nude mice (CrTac:NCr-Foxn1mu from Taconic), 6-7 weeks old, were implanted subcutaneously with 5×10^6 cells in a […] serum-free media/Matrigel® mixture into the region of the right axilla, Mice were randomized into treatment groups and treatments initiated when tumors reached 100 to 200 mg. Compound 2R was administered daily by oral gavage as a fine suspension in 1:2 propylene glycol in 1% Tween80, Na3PO4 based upon individual animal body weight (0.2 mL/20 g). Subcutaneous tumor volume and body weights were measured two to three times a week. Tumor volumes were calculated by measuring two perpendicular diameters with calipers and using the formula: tumor volume=(length×width2)/2. Individual mice were dosed daily until their tumor burden reached 500 mg for the CAL-27 and HCC-70 models or 1000 mg for the CAL-33 model, to allow for calculation of increase in progression-free survival. Percent increase in survival was calculated by comparing the median time to reach either 500 mg or 1000 mg in the treated group versus the vehicle control group. A complete response (CR) is defined as a tumor below the limits of palpation ([…]).

[7] = Pharmacokinetics in dogs, single IV / oral dose; type: in vivo
Procedure: as §4

[8] = Pharmacokinetics in monkeys, single IV / oral dose; type: in vivo
Procedure: as §4

[9] = simulated intestinal fluid (SIF), fassgf or other biorelevant, simulated intestinal fluid pH 6.8, 25° C., read-out: Solubility SIF

CS(=O)(=O)Nc1cncc(-c2ccc3ncnc(NCc4ccccc4)c3c2)c1 [Comparative Compound 3, reference compound]
inhibition at 0.1 µM [1]: > 90%
IC50 [2]: 20 to 200 nM
inhibition at 0.1 µM ([2]; read-out: EGFR % Inh. @ 100 nM): > 90%
IC50 [3]: 20 to 200 nM
inhibition at 0.1 µM [3]: 80 to 90%
solubility at 2 h [4, 9]: ≤ 20 µM

C[C@@H](Nc1ncnc2ccc(-c3cnc(Cl)c(NS(C)(=O)=O)c3)cc12)c1ccccc1 [Compound 2R, N-(2-chloro-5-(4-((1R-phenylethyl)amino)quinazolin-6-yl)pyridin-3-yl)methanesulfonamide]
increase in exposure (AUClast/D) vs Comparative Compound 2 ([5]; IV): ~3 fold
enhanced exposure (AUClast/D) relative to Comparative Compound 2 ([5]; oral): 3 fold
Tolerability (body weight loss, clinical signs) [6]: well tolerated
increase in exposure (AUClast/D) vs Comparative Compound 2 ([7]; IV): ~15 fold
improvement in exposure (AUClast/D) vs Comparative Compound 2 ([7]; oral): > 28 fold
increase in exposure (AUClast/D) vs Comparative Compound 2 ([8]; IV): ~3 fold
improvement in exposure (AUClast/D) vs Comparative Compound 2 ([8]; oral): > 74 fold

C[C@@H](Nc1c(C#N)cnc2ccc(-c3cnc(Cl)c(NS(C)(=O)=O)c3)cc12)c1ccccc1 [Compound 48R, N-(2-chloro-5-(3-cyano-4-((1R-phenylethyl)amino)quinolin-6-yl)pyridin-3-yl)methanesulfonamide]
IC50 [3]: 2 to 20 nM
solubility at 2 h ([4]; aqueous buffer, PBS pH 7.4, 25° C., read-out: Solubility pH 7.4 PBS buffer): ≤ 20 µM
solubility at 2 h ([4]; simulated gastric fluid (SGF), simulated gastric fluid pH 1.2, 25° C., read-out: Solubility SGF): > 200 µM
solubility at 2 h [4, 9]: ≤ 20 µM

C[C@H](Nc1c(C#N)cnc2ccc(-c3cnc(Cl)c(NS(C)(=O)=O)c3)cc12)c1ccccc1 [Compound 48S, N-(2-chloro-5-(3-cyano-4-((1S-phenylethyl)amino)quinolin-6-yl)pyridin-3-yl)methanesulfonamide]
IC50 [3]: < 2 nM

C[C@@H](Nc1c(C#N)cnc2ccc(-c3cnc(Cl)c(NS(C)(=O)=O)c3)cc12)c1ccc(F)cc1 [Compound 97R, N-[2-chloro-5-[3-cyano-4-[[(1R)-1-(4-fluorophenyl)ethyl]amino]-6-quinolyl]-3-pyridyl]methanesulfonamide]
inhibition at 0.1 µM [3]: 80 to 90%

CS(=O)(=O)Nc1cc(-c2ccc3ncc(C#N)c(NC4c5ccccc5CC4O)c3c2)cnc1Cl (stereo not drawn) [Compound 103, N-[2-chloro-5-[3-cyano-4-[(2-hydroxyindan-1-yl)amino]-6-quinolyl]-3-pyridyl]methanesulfonamide]
inhibition at 0.1 µM [3]: > 90%

CS(=O)(=O)Nc1cc(-c2ccc3ncc(C#N)c(NC4(c5ccccc5)CC4)c3c2)cnc1Cl [Compound 106, N-[2-chloro-5-[3-cyano-4-[(1-phenylcyclopropyl)amino]-6-quinolyl]-3-pyridyl]methanesulfonamide]
inhibition at 0.1 µM [3]: > 90%
